The values below come from US11485728B2, “Small molecules for the treatment of autoimmune diseases and cancer” (Athos Therapeutics, Inc., priority 2020, dated 2022).

Structures are written as SMILES. Where only a bound is given, the exact number is not on record here.

For orientation: half-life means the time in which the quantity being followed falls by half. Broadly, the IC50 is the point on the concentration scale where inhibition reaches its midpoint.

The subject of series [1] is C57BL/6 mice with DSS colitis. In words: DSS colitis in C57BL/6 mice. For Clinical Score: key: −: indicates no statistically significant effect in the variable measured when compared with the control group; +: indicates a statistically significant difference in the variable measured when compared with the control group; ++: indicates measurements that include multiple variables in the calculation of their differences when compared with the control group, and represents the presence of significant changes across all variable measurements. The format is in vivo. The settings on record: for Clinical Score: includes weight, bleeding, diarrhea, rectal prolapse; for protection against colitis induced weight loss / colitis-induced weight loss / colon length shortening: daily oral gavage; for protection against colitis induced weight loss: after d11; for colitis-induced weight loss / colon length shortening: d12. As for the experimental part: Dextran sodium sulfate (DSS) was added to the water 24 hrs after compound administration and weight was measured daily.
C57BL/6 mice (20-22 grams) were fed ad lib and assigned to 4 different groups (n=8/group). […] A control group received vehicle alone. After 24 hrs, mice were weighed and DSS was added to their drinking water. Mice were then treated with the test compounds and weighed daily and the DSS water was replenished every 72 hrs for 5 days, at which point, it was replaced by regular drinking water. Mice were sacrificed on day twelve and clinical scored was assessed. Intestinal tissue for and blood were also collected. Tissues were either flash frozen and kept in −80° C. for RNA and protein isolation or placed in 10% formalin solution for future histological analysis. Blood was spun at 5K rpm for 5 min and serum was collected and kept at −20° C. for multiplex cytokine analysis.
DSS colitis mouse model: C57BL/6 mice (20-22 grains) are fed ad lib and assigned to different groups (n=8/group). […] A control group receives vehicle alone. After 24 h, mice are weighed and DSS is added to their drinking water. Mice are then treated with the test compounds and weighed daily and the DSS water is replenished every 72 liars for 5 days, at which point, it is replaced by regular drinking water. Mice are sacrificed on day twelve and clinical scored was assessed. Intestinal tissue for and blood are also collected. Tissues are either flash frozen and kept in −80° C. for RNA and protein isolation or placed in 10% formalin solution for future histological analysis.

For series [2], the system named is HT-29 colorectal cancer cells. In words: HT-29 cell viability (Real-Time-Glo). The settings on record: for growth of HT-29 colorectal cancer cells: luminescence at 72 h; for IC50: Homo sapiens, HT-29, 72 hr, read-out: IC50, Cell line: HT-29. Format: cell-based. As for the experimental part:
Equal volume of 2× RealTime-Glo™ reagent (2 μl of MT Cell Viability Substrate 1,000×, and 2 μl of NanoLuc® Enzyme 1,000×, per 1 ml of media, Promega) was added to each well and cells were incubated at 37° C. Luminescence was evaluated at 72 h.
(§1) To determine the plating density for cell viability assays, for each cell line, cells were counted and diluted to final densities of 2.5, 5, 10 and 20 thousand per 100 μl of their respective growth media per well in 96 well plates. A Promega Real-Time-Glo cell viability kit was used to determine the optimal concentration for cell plating so that each cell line would be within the linear part of its growth curve after 72 hrs in culture. […] Test compounds were then added at different concentrations for the creation of six-point curve and cell density was determined using the Promega Real-Time-Glo cell viability kit after 24, 48, and 72 hrs in culture.
Specifically, the Promega Real-Time-Glo cell viability kit was used to determine the optimal concentration for cell plating so that each cell line would be within the linear part of its growth curve after 72 hrs in culture. […] Test compounds are then added at different concentrations for the creation of six-point curve and cell density is determined using the Promega Real-Time-Glo cell viability kit after 24, 48, and 72 hrs in culture. […]

Series [3] in a line: In-vitro half-life in human liver microsomes. The settings on record: Human liver microsomes 0.5 mg/mL; 1 μg/mL drug; NRS; read-out: Metabolic Half-life. The format is in vitro ADME. As to the method: In each of the species (human, rat, mouse) of liver matrix to be tested, a working concentration of 2 μg/mL was prepared of each test article from the 0.5 mg/mL DMSO stock solution by adding 3 μL of 0.5 mg/mL test article stock solution to 747 μL of the 1 mg/mL liver matrix. Incubation was performed at 37±2° C. with gentle, continuous mixing in shaking water bath in 2.0 mL-well capacity 96-Deepwell plates (96-DWP). Samples were retrieved in duplicate at the following time points: 0, 5, 10, 15, 30 and 60 minutes. The final mixture contained 1 μg/mL of drug and 0.5 mg/mL of liver matrix. First, 50 μL of test articles in liver matrix was added to the 96-DWP and pre-warmed the mixture in the 96-DWP for 2 minutes in the 37° C. water bath. The enzymatic reaction was started by the addition of 50 μL of the corresponding 2× NADPH regenerating system (NRS) cofactor solution to all sample wells and stopped by the addition of 300 μL of stop solution (acetonitrile containing 10 ng/mL Tolbutamide as an internal standard (I.Std.). The samples were agitated for 10 minutes and then centrifuged for 20 minutes at 4500 rpm. 25 μL of supernatant was diluted with 475 μL acetonitrile containing I. Std. into a new 96-DWPs for LC-MS/MS analysis.
Half-life calculations were generated and calculated by Graphpad Prism® software. The half-life of test compound was calculated based on the first-order reaction kinetics. The data was transformed to linear regression (y=log(y) where “y” axis represents the % compound remaining at any given time with respect to time 0 minutes; “x” axis represents time in minutes) in order to calculate the half-life.
A comparison of metabolic stability in time-course incubation experiments in varying species of liver can provide information of pharmacokinetic properties of drugs attributable to species-related differences in hepatic metabolism. The results of these experiments often assist in further applications such as assessing in vitro metabolite profiling and choosing relevant species for toxicology studies based on similarities relative to the metabolic stability to the human profile. For these experiments, the test compound was tested in parallel with a positive control, Dasatinab, in an enzymatic reaction solution of each species (human and rat) of liver microsomes containing a NADPH regenerating system (NRS). The final mixture contained 1 μg/mL of drug and 0.5 mg/mL of liver matrix. Incubations were performed at 37±2° C. with gentle, continuous mixing in shaking water bath in 96-Deep well plates. The stability of the test compound is monitored using fast, specific and sensitive LC/MS/MS analysis.
(In general: Microsomes from liver hold many membrane-bound enzymes, among them those of drug oxidation.)

Another series has as its system HCT-116. Description: HCT-116 cell viability (Real-Time-Glo). The format is cell-based. The settings on record: Homo sapiens, 72 hr, read-out: IC50, Cell line: HCT-116. As for the experimental part: as §1
The test system of another series is A-498. Description: A-498 kidney cancer cell viability (Real-Time-Glo). The settings on record: Homo sapiens, A498; 72 hr; read-out: IC50, Cell line: A-498. Format: cell-based. As for the experimental part:
To determine the plating density for cell viability assays, for each cell line, cells were counted and diluted to final densities of 2.5, 5, 10 and 20 thousand per 100 μl of their respective growth media per well in 96 well plates. A Promega Real-Time-Glo cell viability kit was used to determine the optimal concentration for cell plating so that each cell line would be within the linear part of its growth curve after 72 hrs in culture. For the determination of test compound IC50s different cancer cell lines were plated in 96 well plates in the pre-determined optimal density for each cell line. Test compounds were then added at different concentrations for the creation of six-point curve and cell density was determined using the Promega Real-Time-Glo cell viability kit after 24, 48, and 72 hrs in culture. Test compound 72 hr IC50s were calculated using the AAT Bioquest IC50 calculator.

[4] abbreviates: 25 mg/kg PO daily, sacrificed day twelve.
[5] abbreviates: 50 mg/kg daily oral, d12 after DSS induction, vs vehicle.

`COc1cc2c(NC3CCS(=O)(=O)CC3)nc(N3CCC(F)(F)CC3)nc2cc1OCCCN1CCCC1` [Compound 1, 4-((2-(4,4-difluoropiperidin-1-yl)-6-methoxy-7-(3-(pyrrolidin-1-yl)propoxy)quinazolin-4-yl)amino)tetrahydro-2H-thiopyran 1,1-dioxide]: the “effect on the effects of DSS colitis (in words)” value (from here on “effect on the effects”) in series [1] (25 mg/kg PO daily) is reported as “alleviation of the effects of DSS colitis”. In addition, in series [1] (25 mg/kg PO daily, day twelve), the “Colon Length” value was “+” and the “Clinical Score” value is “+”. Also, the “DSS Efficacy” value in series [1] (setting [4]) was “+”. Besides, the DSS-induced weight loss result in series [1] (50 mg/kg daily oral) is “resulted in increased weight”. Also, the Colon Length entry in series [1] (setting [5]) is “increased”. The “protection against colitis induced weight loss” value in series [1] is given as “significant protection against colitis induced weight loss”. Also, in series [1] (vs vehicle), the colitis-induced weight loss entry is “significantly prevented” and the colon length shortening result is given as “significantly prevented”. Moreover, the “growth of HT-29 colorectal cancer cells” value in series [2] was “potent anti-cancer activity”. Moreover, in series [3], the half-life at 1 μg/mL was above 1 h.
In the case of `COc1cc2c(NC3CCOCC3)nc(N3CCC(F)(F)CC3)nc2cc1OCCCN1CCCC1` [Compound 2, 2-(4,4-difluoropiperidin-1-yl)-6-methoxy-7-(3-(pyrrolidin-1-yl)propoxy)-N-(tetrahydro-2H-pyran-4-yl)quinazolin-4-amine], in series [1] (25 mg/kg PO daily), the “effect on overall efficacy, clinical score and colon length (in words)” value is recorded as “very strong effect”; the “effect on the effects” value is “alleviation of the effects of DSS colitis”. In series [1] (25 mg/kg PO daily, day twelve), the “Colon Length” value was “++” and the “Clinical Score” value is on record as “++”. The “DSS Efficacy” value in series [1] (setting [4]) is given as “++”. In series [1], the “protection against colitis induced weight loss” value is “significant protection against colitis induced weight loss”. In addition, in series [1] (vs vehicle), the colitis-induced weight loss entry is given as “significantly prevented” and the colon length shortening entry is recorded as “significantly prevented”. Moreover, in series [2], the IC50 lay in the range of 1 to 5 µM and the “growth of HT-29 colorectal cancer cells” value is reported as “potent anti-cancer activity”. Further, the half-life at 1 μg/mL in series [3] is above 1 h.
On to `COCCN1CCC(Nc2nc(N3CCC(F)(F)CC3)nc3cc(OCCCN4CCCC4)c(OC)cc23)CC1` [Compound 3, 2-(4,4-difluoropiperidin-1-yl)-6-methoxy-N-(1-(2-methoxyethyl)piperidin-4-yl)-7-(3-(pyrrolidin-1-yl)propoxy)quinazolin-4-amine], for which the “growth of HT-29 colorectal cancer cells” value in series [2] is recorded as “potent anti-cancer activity”. Further, the IC50 with HCT-116 lay within 1 to 5 µM; in the series on A-498, 5 to 10 µM. Besides, the half-life at 1 μg/mL in series [3] is above 1 h.
Turning to `COCCNc1nc(N2CCC(F)(F)CC2)nc2cc(OCCCN3CCCC3)c(OC)cc12` [Compound 4, 2-(4,4-difluoropiperidin-1-yl)-6-methoxy-N-(2-methoxyethyl)-7-(3-(pyrrolidin-1-yl)propoxy)quinazolin-4-amine], in series [2], the IC50 was in the range of 1 to 5 µM and the “growth of HT-29 colorectal cancer cells” value is “potent anti-cancer activity”. Besides, in the series on HCT-116, the IC50 was 1 to 5 µM. Further, in series [3], the half-life at 1 μg/mL was above 1 h.
Consider `COc1cc2c(NC3CCN(C(C)C)CC3)nc(-n3ccnc3)nc2cc1OCCCN1CCCC1` [Compound 156, 2-(1H-imidazol-1-yl)-N-(1-isopropylpiperidin-4-yl)-6-methoxy-7-(3-(pyrrolidin-1-yl)propoxy)quinazolin-4-amine], for which the IC50 lay in the range of 1 to 5 µM in series [2], 1 to 5 µM in the series with HCT-116 and 5 to 10 µM in the series on A-498. For the same compound, in series [3], the half-life at 1 μg/mL is above 1 h.
For `COc1cc2c(NC3CCOCC3)nc(N3CCCC3)nc2cc1OCCCN1CCCC1` [Compound 164, 6-methoxy-2-(pyrrolidin-1-yl)-7-(3-(pyrrolidin-1-yl)propoxy)-N-(tetrahydro-2H-pyran-4-yl)quinazolin-4-amine], the “DSS Efficacy” value in series [1] (25 mg/kg PO daily, day twelve) is on record as “++”. The IC50 in the series with HCT-116 was in the range of 1 to 5 µM. Moreover, the half-life at 1 μg/mL in series [3] is above 1 h.
With `COc1cc2c(NC3CCOCC3)nc(N3CCC3)nc2cc1OCCCN1CCCC1` [Compound 174, 2-(azetidin-1-yl)-6-methoxy-7-(3-(pyrrolidin-1-yl)propoxy)-N-(tetrahydro-2H-pyran-4-yl)quinazolin-4-amine], the IC50 with HCT-116 was in the range of 1 to 5 µM. Moreover, the half-life at 1 μg/mL in series [3] was above 1 h.
On to `COc1cc2c(NC3CCN(C(C)C)CC3)nc(N3CCC3)nc2cc1OCCCN1CCCC1` [Compound 234, 2-(azetidin-1-yl)-N-(1-isopropylpiperidin-4-yl)-6-methoxy-7-(3-(pyrrolidin-1-yl)propoxy)quinazolin-4-amine], for which the IC50 with HCT-116 is 1 to 5 µM; in the series with A-498, 5 to 10 µM. For the same compound, the half-life at 1 μg/mL in series [3] is above 1 h.
The like results for `COc1cc2c(NC3CCN(C(C)C)CC3)nc(C#N)nc2cc1OCCCN1CCCC1` [Compound 235, 4-((1-isopropylpiperidin-4-yl)amino)-6-methoxy-7-(3-(pyrrolidin-1-yl)propoxy)quinazoline-2-carbonitrile] were, in that order, 1 to 5 µM, 5 to 10 µM and above 1 h.
For `COc1cc2c(NC3CCN(C(C)C)CC3)nc(N3CCC(F)(F)CC3)nc2cc1OCCCN1CCCC1` [Compound 400, 2-(4,4-difluoropiperidin-1-yl)-N-(1-isopropylpiperidin-4-yl)-6-methoxy-7-(3-(pyrrolidin-1-yl)propoxy)quinazolin-4-amine, reference compound], the “effect on the effects” value in series [1] (25 mg/kg PO daily) is on record as “no effect”. Further, the “Colon Length” value in series [1] (25 mg/kg PO daily, day twelve) is “−”; in series [1] (setting [5]), “not”. Besides, the “Clinical Score” value in series [1] (25 mg/kg PO daily, day twelve) is recorded as “−”. Also, the “DSS Efficacy” value in series [1] (setting [4]) was “−”. Moreover, the DSS-induced weight loss result in series [1] (50 mg/kg daily oral) is reported as “failed to increase DSS-induced weight loss”. The IC50 fell in the range of 5 to 10 µM in series [2] and 10 to 20 µM in the series with A-498. Also, the half-life at 1 μg/mL in series [3] was above 1 h.
